# Data published in US12559504B2, “Benzotriazole derivative” (UBE CORPORATION, priority 2019, dated 2026).
# How the values were obtained:
# NQO1 = NQO1 expression induction test in mouse kidney (single administration); type: in vivo; conditions: BALB/c mouse kidney, 6 hours after administration, ratio to control group
# Procedure: Each test compound solution for administration was prepared by dissolving or suspending each test compound into a 0.5 w/v % aqueous solution of methylcellulose (0.5% MC) (manufactured by Wako Pure Chemical Industries, Ltd.).
# Each prepared test compound was orally administered to a BALB/c mouse (female, provided by Charles River Laboratories Japan, Inc.). Non-treated group was used as a control group. After 6 hours from the administration, each mouse was anesthetized with isoflurane, and euthanized with bloodletting by incising a lower aorta. Immediately, the left kidney was excised, cut into small pieces, and then the cut kidney pieces were transferred to RNA later (Thermo Fisher Scientific).
# Then, mRNA was extracted from the collected kidney pieces by using NucleoSpin (registered trademark) RNA Kit (Takara Bio Inc.), each concentration was quantified by FlexStation3 (Molecular Devices), and then the concentration was adjusted to a constant concentration. A reverse transcription synthesis of cDNA was carried out from the mRNA with the constant concentration by using PrimeScript™ RT reagent Kit with gDNA Eraser and PCR Thermal Cycler (Takara Bio Inc.). Then, in addition to the resulting cDNA, SYBR (registered trademark) Premix Ex Taq™ II and NQO1, GAPDH primer (Takara Bio Inc.) were used to carry out Real-time PCR by PCR Thermal Cycler Dice Real time (Takara Bio Inc.), and the NQO1 expression was quantified by using the GAPDH expression as the reference.
# In order to evaluate the NQO1 expression induction in each group, the NQO1 expression induction ratio was calculated by using the following equation. (NQO1 expression induction ratio)=(Average NQO1 expression in test compound administered group)[…](Average NQO1 expression in control group)
# [1] = Metabolism test using human liver microsome fractions; type: in vitro ADME; conditions: human liver microsomes, test compound 10 μmol/L, NADPH and UDP-glucuronic acid, 37° C.
# Procedure: A reaction composition solution (comprising NADPH Regenerating System, Solution A (manufactured by Corning Inc., REF. 451220) (50 μL), NADPH Regenerating System, Solution B (manufactured by Corning Inc., REF. 451200) (10 μL), 250 mM UDP-glucuronic acid (40 μL), UGT Reaction Mix Solution B (manufactured by Corning Inc., REF. 451320) (200 μL), and distilled water (640 μL)) in which human liver microsomes (manufactured by Xenotech, Cat. No. H610) or monkey liver microsomes (manufactured by Xenotech, Cat. No. P2000) (corresponding to 1 mg of protein) were suspended was prepared. After the solution was incubated at 37° C. for 5 minutes, each test compound dissolved into DMSO (manufactured by FUJIFILM Wako Pure Chemical Corporation, Code No. 043-07216) was added to the solution so that the final concentration was set to be 10 μmol/L, and a reaction was initiated. After 0, 5, 10, 15, 20, and 30 minute(s) from the initiation of the metabolism reaction, 100 μL of the reaction solution was taken out of the reaction system, and added to 200 μL of acetonitrile to stop the reaction. After the reaction was completed, the reaction solution was subjected to a work-up such as deproteinization, and then subjected to an UV-HPLC analysis to carry out the following analysis.
# The peak area of each test compound was calculated by LabSolution software (Shimadzu Corporation), and the residual ratio (%) at each culture time of test material was calculated by the following equation. Residual ratio (%)=Peak area at each culture time[…]Peak area at 0 (initial time)
# Next, the residual amount (nmol/mg/mL) at each culture time of test material was calculated by the following equation. Residual amount (nmol/mg/mL)=Initial concentration of reaction solution (10 nmol/mg/mL)×residual ratio÷100
# Finally, a graph in which the reaction time was plotted at horizontal axis and the residual amount was plotted at longitudinal axis was prepared on Excel, and the inclination was calculated as the elimination rate (pmol/min/mg-P) within the time range in which the graph was deemed linear.
# [2] = target: T1, GST fusion human Keap1 (amino acid residue: 325-624) protein (Homo sapiens, UniProt Q14145); assay: Keap1-Nrf2 binding inhibition test (fluorescence polarization); conditions: compound concentration of 100 nM; read-out: inhibition rate
# T1 construct: GST fusion human Keap1 (amino acid residue: 325-624) protein; purchased Protein tech Ag0779
# Procedure: The inhibitory activity of each test compound on the binding between Nrf2 and Keap1 was measured by the fluorescence polarization method. A solution consisting of 20 mM tris-hydrochloride pH7.5 (NIPPON GENE CO., LTD., REF: 318-90225), 150 mM NaCl [FUJIFILM Wako Pure Chemical. Corporation, REF: 191-01665], 0.05% Tween 20 (BioRAD, REF: 161-0781), and 5 mM DTT (FUJIFILM Wako Pure Chemical Corporation, REF: 049-08972) was used as a buffer solution. To a test compound solution (70 μL) adjusted to each concentration with 10% DMSO (FUJIFILM Wako Pure Chemical Corporation, REF: 043-07216) was added a buffer solution (350 μL) comprising 6 nM FITC-labeled Nrf2 peptide (FITC-Ahx-LDEETGEFL-NH2, Invitrogen) and 0.2 mg/mL of BSA (FUJIFILM Wako Pure Chemical Corporation, REF: 017-22231). Each 120 μL of the resulting mixture was dispensed into a black 96 well plate, and a buffer solution (80 μL) comprising 2.5 nM GST fusion human Keap1 (amino acid residue: 325-624) protein (Protein tech, REF: Ag0779) was added thereto. A Keap1-free buffer solution was added to some wells to prepare negative controls. Meanwhile, compound-free wells were used as positive controls. The plate was incubated at room temperature for 30 minutes, and each fluorescence polarization at excitation wavelength of 482 nm and fluorescence wavelength of 530 nm was measured by using a plate reader Clariostar (BMG Labtech). The fluorescence polarization of the negative control was set to be 100% inhibition, fluorescence polarization of the positive control was set to be 0% inhibition, and the inhibition rate of each test compound at 100 nM was calculated by using the following equation. Inhibition rate (%)=100−((Fluorescence polarization when test compound was added−Fluorescence polarization of negative control)/(Fluorescence polarization of positive control−Fluorescence polarization of negative control))×100
# T1 sequence (Q14145 325-624): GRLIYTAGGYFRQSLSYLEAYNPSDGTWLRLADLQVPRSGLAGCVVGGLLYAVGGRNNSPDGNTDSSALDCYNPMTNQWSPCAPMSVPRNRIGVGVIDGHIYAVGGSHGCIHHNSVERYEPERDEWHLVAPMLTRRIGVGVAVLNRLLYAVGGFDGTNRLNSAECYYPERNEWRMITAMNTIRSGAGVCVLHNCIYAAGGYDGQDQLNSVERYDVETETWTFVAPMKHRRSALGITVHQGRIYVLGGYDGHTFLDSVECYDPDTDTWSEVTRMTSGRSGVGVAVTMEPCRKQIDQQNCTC
SMILES,Human metabolic rate [1],also measured
"CCCC1CN(Cc2cc(C(c3ccc4c(nnn4C)c3C)C(C)(C)C(=O)O)ccc2C)Cc2cc3ncccc3cc2O1 (centres unmarked) [Example 78-(b), 3-(1,4-dimethyl-1H-benzo[d][1,2,3]triazol-5-yl)-2,2-dimethyl-3-(4-methyl-3-((2-propyl-2,3-dihydro-[1,4]oxazepino[7,6-g]quinolin-4 (5H)-yl)methyl)phenyl)propanoic Acid]",B (100≤metabolic rate<150 pmol/min/mg protein),"NQO1 expression induction activity (NQO1; Dose 20 mg/kg, oral, 20 mg/kg): B (3<NQO1 expression induction ratio≤6)"
"CC[C@@H]1CN(Cc2cc(C(c3ccc4c(nnn4C)c3C)C(C)(C)C(=O)O)ccc2C)Cc2cc3c(cc2O1)CCCC3 (single isomer, unassigned) [Example 34]",C (150≤metabolic rate<200 pmol/min/mg protein),–
"CCCC1CN(Cc2cc(C(c3ccc4c(nnn4C)c3C)C(C)(C)C(=O)O)ccc2C)Cc2cc3ncccc3cc2O1 (centres unmarked) [Example 77-(b), 3-(1,4-dimethyl-1H-benzo[d][1,2,3]triazol-5-yl)-2,2-dimethyl-3-(4-methyl-3-((2-propyl-2,3-dihydro-[1,4]oxazepino[7,6-g]quinolin-4 (5H)-yl)methyl)phenyl)propanoic Acid]",B (100≤metabolic rate<150 pmol/min/mg protein),"fold induction at 20 mg/kg (NQO1; Mus musculus, po, 6 h, Dose 20 mg/kg): > 6; inhibition at 0.1 µM [2]: ≥ 50%"
"CC[C@H]1CN(Cc2cc(C(c3ccc4c(nnn4C)c3C)C(C)(C)C(=O)O)ccc2C)Cc2ncc3ccccc3c2O1 (single isomer, unassigned) [Example 90]",C (150≤metabolic rate<200 pmol/min/mg protein),–
"CC[C@@H]1CN(Cc2cc(C(c3ccc4c(nnn4C)c3C)C(C)(C)C(=O)O)ccc2C)Cc2ccc3c(c2O1)CCC3 (single isomer, unassigned) [Example 35]",B (100≤metabolic rate<150 pmol/min/mg protein),"fold induction at 10 mg/kg (NQO1; Mus musculus, po, 6 h): > 6; inhibition at 0.1 µM [2]: ≥ 50%"
"CC[C@@H]1CN(Cc2cc(C(c3ccc4c(nnn4C)c3C)C(C)(C)C(=O)O)ccc2C)Cc2c(ccc3cn[nH]c23)O1 (single isomer, unassigned) [Example 44]",E (metabolic rate≥250 pmol/min/mg protein),–
"CC[C@@H]1CN(Cc2cc(C(c3ccc4c(nnn4C)c3C)C(C)(C)C(=O)O)ccc2C)Cc2cc3c(cc2O1)OC(F)(F)O3 (single isomer, unassigned) [Example 29]",A (metabolic rate<100 pmol/min/mg protein),"fold induction at 10 mg/kg (NQO1; Mus musculus, po, 6 h): > 6; inhibition at 0.1 µM [2]: ≥ 50%"
"CC[C@@H]1CN(Cc2cc(C(c3ccc4c(nnn4C)c3C)C(C)(C)C(=O)O)ccc2C)Cc2ncc3ccccc3c2O1 (single isomer, unassigned) [Example 45]",A (metabolic rate<100 pmol/min/mg protein),"fold induction at 10 mg/kg (NQO1; Mus musculus, po, 6 h): > 6; inhibition at 0.1 µM [2]: ≥ 50%"
"CC[C@@H]1CN(Cc2cc(C(c3ccc4c(nnn4C)c3C)C(C)(C)C(=O)O)ccc2C)Cc2cc3cccnc3cc2O1 (single isomer, unassigned) [Example 40]",E (metabolic rate≥250 pmol/min/mg protein),–
"Cc1ccc(C(c2ccc3c(nnn3C)c2C)C(C)(C)C(=O)O)cc1CN1Cc2cc3ncccc3cc2OC2(CC2)C1 (single isomer, unassigned) [Example 86, 3-(3-((3′H-spiro[cyclopropane-1,2′-[1,4]oxazepino[7,6-g]quinoline]-4′ (5′H)-yl)methyl)-4-methylphenyl)-3-(1,4-dimethyl-1H-benzo[d][1,2,3]triazol-5-yl)-2,2-dimethylpropanoic Acid]",E (metabolic rate≥250 pmol/min/mg protein),–
"CC[C@@H]1CN(Cc2cc(C(c3ccc4c(nnn4C)c3C)C(C)(C)C(=O)O)ccc2C)Cc2cc3c(cc2O1)CCC3 (single isomer, unassigned) [Example 32]",D (200≤metabolic rate<250 pmol/min/me protein),–
"CC[C@H]1CN(Cc2cc(C(c3ccc4c(nnn4C)c3C)C(C)(C)C(=O)O)ccc2C)Cc2cc3ncccc3cc2O1 (single isomer, unassigned; diastereomer 1) [Example 57-(c)]",C (150≤metabolic rate<200 pmol/min/mg protein),inhibition at 0.1 µM [2]: ≥ 50%
"CC[C@@H]1CN(Cc2cc(C(c3ccc4c(nnn4C)c3C)C(C)(C)C(=O)O)ccc2C)Cc2ncc3ccccc3c2O1 (single isomer, unassigned) [Example 46]",E (metabolic rate≥250 pmol/min/mg protein),–
"CC[C@@H]1CN(Cc2cc(C(c3ccc4c(nnn4C)c3C)C(C)(C)C(=O)O)ccc2C)Cc2ccccc2O1 (single isomer, unassigned) [Example C2, reference compound]",E (metabolic rate≥250 pmol/min/mg protein),–
"CC[C@@H]1CN(Cc2cc(C(c3ccc4c(nnn4C)c3C)C(C)(C)C(=O)O)ccc2C)Cc2cc3ncccc3cc2O1 (single isomer, unassigned) [Example 42]",E (metabolic rate≥250 pmol/min/mg protein),–
"CC[C@@H]1CN(Cc2cc(C(c3ccc4c(nnn4C)c3C)C(C)(C)C(=O)O)ccc2C)Cc2nc3ccccc3cc2O1 (single isomer, unassigned) [Example 38]",E (metabolic rate≥250 pmol/min/mg protein),–
"CC[C@@H]1CN(Cc2cc(C(c3ccc4c(nnn4C)c3C)C(C)(C)C(=O)O)ccc2C)Cc2ccc3c(c2O1)CCC3 (single isomer, unassigned) [Example 36]",C (150≤metabolic rate<200 pmol/min/mg protein),–
"CC[C@@H]1CN(Cc2cc(C(c3ccc4c(nnn4C)c3C)C(C)(C)C(=O)O)ccc2C)Cc2cc3c(cc2O1)OC(F)(F)O3 (single isomer, unassigned) [Example 30]",E (metabolic rate≥250 pmol/min/mg protein),–
"CC[C@@H]1CN(Cc2cc(C(c3ccc4c(nnn4C)c3C)C3(C(=O)O)CCC3)ccc2C)Cc2cc3ncccc3cc2O1 (single isomer, unassigned) [Example 88]",E (metabolic rate≥250 pmol/min/mg protein),–
